# Columns and labels:
# RORγ-LBD = target: T1, RORγ-LBD (Homo sapiens, UniProt P51449); experiment: RORγ-Ligand Binding Domain TR-FRET Assay; format: biochemical; settings: benzoxazines, Table 9
# T1 construct: HIS-tagged RORγ-LBD was recombinantly expressed in SF9 cells; made in house; host or cells: SF9 cells (baculovirus); unpurified lysate
# T1 sequence (P51449 269-508 limits assumed): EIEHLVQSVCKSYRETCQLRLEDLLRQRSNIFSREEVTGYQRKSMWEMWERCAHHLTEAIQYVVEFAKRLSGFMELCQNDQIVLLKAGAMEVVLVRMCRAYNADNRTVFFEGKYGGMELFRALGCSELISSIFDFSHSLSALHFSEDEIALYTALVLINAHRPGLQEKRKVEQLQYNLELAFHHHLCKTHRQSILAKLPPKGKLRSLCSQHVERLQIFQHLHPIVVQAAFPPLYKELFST
# How it was run: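 IC50 derived from the 665 nm/615 nm emission ratio after 4 h to overnight incubation. Mixture: Sf9 lysate with His-tagged LBD (~10 nM final, not purified), SRC1-2 LXXLL biotin peptide at 450 nM, 2 nM europium anti-His antibody, 60 nM APC-streptavidin; buffer 25 mM HEPES pH 7.0, 100 mM NaCl, 0.01% Tween, 0.1% BSA.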
# RORγt = target: T2, RORγt (Homo sapiens, UniProt P51449); experiment: RORγ Reporter Assay (GAL4-UAS luciferase reporter in HEK293 cells); format: cell-based; settings: benzoxazines, Table 9; HEK cells
# T2 construct: The resulting GAL4-RORγt-LBD fusion construct was placed under the control of a constitutive cytomegalovirus (CMV) promoter; expressed in transfected cells; host or cells: HEK293
# T2 sequence (P51449 269-508 limits assumed): T1 sequence (P51449 269-508 limits assumed)
# Experimental: Inhibition of RORγt in cells was determined using a GAL4-UAS reporter system in HEK293 cells employing a luciferase readout. The RORγt DNA binding domain (DBD) was replaced with the heterologous yeast GAL4 DBD using standard recombinant DNA methods. The resulting GAL4-RORγt-LBD fusion construct was placed under the control of a constitutive cytomegalovirus (CMV) promoter by cloning it into the CMV-driven mammalian expression vector pcDNA3.1+− (Promega Corporation, Madison, Wis.).
# A transcriptional reporter expression construct was used to monitor GAL4-RORγ activity, which contained five copies of the GAL4 binding site enhancer (UAS) controlling expression of a firefly luciferase reporter. This construct, pGL4.31, is commercially available from Promega Corporation, Madison Wis. Both expression constructs were transfected in bulk into HEK-293 cells using standard lipid-based transfection techniques, which allowed the GAL4 RORγ-LBD fusion protein to drive expression of the luciferase reporter. Control transfections were performed with an empty pCDN3.1+ vector.
# The next day, cells were plated into 384 well plates, test compound was added, and the plates were incubated overnight. […] Promega firefly assays kits were used to stabilize the luciferase signal, and the intensity of the luciferase signal was measured using an EnVision Multilabel Plate Reader (Perkin Elmer, Waltham, Mass.).
# HEK 293 cells are transfected with GAL4-NR construct (CMV:NR-LBD in pcDNA3.1neo) and the pGL4.31 GAL4-luciferase reporter construct (Promega). For a background control, use empty pcDNA3.1neo and pGL4.31. Transfection protocol is for a single T75 flask performed with Minis Trans-It 293 reagent. A 60 μL aliquot of Trans-IT reagent at room temperature is added drop wise to 1.5 mL of Optimem (Invitrogen). The resulting solution is mixed by inversion and incubated for 5-20 minutes at room temperature. This reagent mixture is added to 10 μg of DNA (5 μg of each expression vector used at a concentration of 1 mg/mL). The solution is mixed by inversion and incubated at room temperature for 20 minutes.
# While the Trans-IT reagent and DNA are incubating, harvest HEK-293 cells. Remove media from flasks via aspiration and add enough TrypLE Express (stable Trypsin-like reagent, Invitrogen) to cover the bottom of the flask. The mixture is incubated at room temperature until the cells are visibly loose in the flask (approximately 2-5 minutes). Add an equal volume of complete growth media, and then pipette to achieve a single cell suspension. Spin down 1×10^7 cells and re-suspend the cells in 10 mL of complete growth media (DMEM high glucose/10% dialyzed FBS/pen/strep; Invitrogen). The cells and transfection mixture are added to one T75 flask. The contents of the T75 flax are mixed and incubated overnight at 37° C. and 5% CO2.
# After 16-24 hours, cells are harvested and plated for test compound screening. Cells may be harvested as described above. Next, cells are counted and an appropriate number of cells are spun down. Then, cells are aspirated and re-suspended in complete growth media at a concentration of 0.5×10^6 cells/mL to provide a cell suspension. Plate 20 μL of the cell suspension into a white, tissue-culture treated 384 well plate. (10,000 cells/well).
# A 10 mM stock solution of test compound in dimethylsulfoxide (DMSO) was diluted to 500× the final test concentration in DMSO, then diluted to 5× the final test concentration with complete growth medium to provide the Test Compound Solution. The concentration of DMSO in the Test Compound Solution was […]. A 5 μL aliquot of Test Compound Solution was added to each test well in the 384 well plate previously plated with the cell suspension. Next, plates are spun briefly and incubated overnight at 37° C. and 5% CO2.
# After 16-24 hours, the luciferase assay is performed. Plates and luciferase reagent (e.g. One-Glo® or Dual Glo®; Promega, Madison, Wis.) are brought to room temperature.
SMILES,IC50 (RORγ-LBD) [µM],IC50 (RORγt) [µM]
CCOCC1CN(S(=O)(=O)c2ccc(Cl)cc2)c2cc(NC(=O)c3c(Cl)cccc3Cl)ccc2O1 (stereo not shown) [VI-92],< 15,< 15
COCC1CN(S(=O)(=O)c2ccc(F)c(F)c2)c2cc(NC(=O)c3c(F)cccc3F)ccc2O1 (stereo not shown) [VI-81],< 15,< 15
O=C(Nc1ccc2c(c1)N(S(=O)(=O)c1ccc(Cl)cc1)C[C@H](CO)O2)c1c(F)cccc1F [VI-87],< 15,< 15
COCC1CN(S(=O)(=O)c2ccc(F)c(F)c2)c2cc(NC(=O)c3c(F)cccc3C(F)(F)F)ccc2O1 (stereo not shown) [VI-79],< 15,< 15
COCC1CN(S(=O)(=O)c2ccc(Cl)cc2)c2cc(NC(=O)c3c(Cl)cccc3Cl)ccc2O1 (stereo not shown) [VI-95],< 15,< 15
CCOCC1CN(S(=O)(=O)c2ccc(F)c(F)c2)c2cc(NC(=O)c3c(F)cccc3Cl)ccc2O1 (stereo not shown) [VI-89],< 15,< 15
CCOCC1CN(S(=O)(=O)c2cccc(C#N)c2)c2cc(NC(=O)c3c(F)cccc3Cl)ccc2O1 (stereo not shown) [VI-100],< 15,< 15
COCC1CN(S(=O)(=O)c2ccc(Cl)cc2)c2cc(NC(=O)c3c(F)cccc3Cl)ccc2O1 (stereo not shown) [VI-96],< 15,< 15
O=C(Nc1cc2c(cc1F)O[C@@H](CO)CN2S(=O)(=O)c1ccc(F)cc1)c1c(Cl)cccc1Cl [VI-40],< 15,< 15
Cc1cccc(Cl)c1C(=O)Nc1ccc2c(c1)N(S(=O)(=O)c1ccc(F)cc1)C[C@H](CO)O2 [VI-48],< 15,< 15
O=C(Nc1ccc2c(c1)N(S(=O)(=O)c1ccc(F)cc1)CC(CC(F)(F)F)O2)c1c(Cl)cccc1Cl (stereo not shown) [VI-13],< 15,< 15
Cc1nn(C(F)F)cc1S(=O)(=O)N1C[C@H](C)Oc2ccc(NC(=O)c3c(Cl)cccc3Cl)cc21 [VI-9],< 15,< 15
CCOCC1CN(S(=O)(=O)c2ccc(F)cc2)c2cc(NC(=O)c3c(F)cccc3Cl)ccc2O1 (stereo not shown) [VI-118],< 15,< 15
O=C(Nc1ccc2c(c1)N(S(=O)(=O)c1ccc(F)cc1)CC(CNCC1CC1)O2)c1c(F)cccc1Cl (stereo not shown) [VI-32],< 15,< 15
COc1ccc(S(=O)(=O)N2C[C@H](CO)Oc3ccc(NC(=O)c4c(C)cccc4Cl)cc32)cn1 [VI-27],< 15,< 15
CCOCC1CN(S(=O)(=O)c2ccc(Cl)cc2)c2cc(NC(=O)c3c(F)cccc3Cl)ccc2O1 (stereo not shown) [VI-93],< 15,< 15
O=C(Nc1ccc2c(c1)N(S(=O)(=O)c1ccc(Cl)cc1)C[C@H](CO)O2)c1c(Cl)cccc1C(F)(F)F [VI-84],< 15,< 15
CC(C)NCC1CN(S(=O)(=O)c2ccc(F)cc2)c2cc(NC(=O)c3c(F)cccc3Cl)ccc2O1 (stereo not shown) [VI-35],< 15,< 15
"N#Cc1cccc(S(=O)(=O)N2C[C@H](CN3CCCC3)Oc3ccc(NC(=O)c4c(F)cccc4Cl)cc32)c1 [Compound 21, (S)-2-Chloro-N-(4-((3-cyanophenyl)sulfonyl)-2-(pyrrolidin-1-ylmethyl)-3,4-dihydro-2H-benzo[b][1,4]oxazin-6-yl)-6-fluorobenzamide]",< 15,< 15

SMILES,IC50 (RORγ-LBD) [µM],IC50 (RORγt) [µM]
Cc1cccc(F)c1C(=O)Nc1ccc2c(c1)N(S(=O)(=O)c1ccc(F)cc1)C[C@H](CO)O2 [VI-44],< 15,< 15
O=C(Nc1ccc2c(c1)N(S(=O)(=O)c1ccc(F)c(F)c1)C[C@@H](CO)O2)c1c(Cl)cccc1Cl [VI-73],< 15,< 15
CC(C)(C)CNCC1CN(S(=O)(=O)c2ccc(F)cc2)c2cc(NC(=O)c3c(F)cccc3Cl)ccc2O1 (stereo not shown) [VI-36],< 15,< 15
O=C(Nc1ccc2c(c1)N(S(=O)(=O)c1ccc(F)cc1)C[C@H](CO)O2)c1c(Cl)cccc1Cl [VI-83],< 15,< 15
O=C(Nc1ccc2c(c1)N(S(=O)(=O)c1ccc(F)cc1)CC(C(F)(F)F)O2)c1c(Cl)cccc1Cl (stereo not shown) [VI-107],< 15,< 15
Cc1cccc(Cl)c1C(=O)Nc1ccc2c(c1)N(S(=O)(=O)c1cccc(C#N)c1)C[C@H](CO)O2 [VI-43],< 15,< 15
O=C(Nc1ccc2c(c1)N(S(=O)(=O)c1ccc(F)c(F)c1)C[C@@H](CO)O2)c1c(F)cccc1C(F)(F)F [VI-72],< 15,< 15
O=C(Nc1ccc2c(c1)N(S(=O)(=O)c1ccc(F)cc1)CCO2)c1c(Cl)cccc1Cl [VI-129],< 15,< 15
C[C@H]1CN(S(=O)(=O)c2ccc(F)cc2)c2cc(NC(=O)c3c(F)cccc3Cl)ccc2O1 [VI-1],< 15,< 15
"O=C(Nc1ccc2c(c1)N(S(=O)(=O)c1ccc(F)cc1)C[C@H](CF)O2)c1c(F)cccc1Cl [Compound 22, (R)-2-Chloro-6-fluoro-N-(2-(fluoromethyl)-4-((4-fluorophenyl)sulfonyl)-3,4-dihydro-2H-benzo[b][1,4]oxazin-6-yl)benzamide]",< 15,< 15
O=C(Nc1ccc2c(c1)N(S(=O)(=O)c1ccc(F)cc1)C[C@@H](CO)O2)c1c(F)cccc1F [VI-110],< 15,< 15
Cc1nn(C(F)F)cc1S(=O)(=O)N1C[C@H](C)Oc2ccc(NC(=O)c3c(F)cccc3F)cc21 [VI-8],< 15,< 15
N#Cc1cccc(S(=O)(=O)N2C[C@H](CO)Oc3ccc(NC(=O)c4c(Cl)cccc4Cl)cc32)c1 [VI-63],< 15,< 15
CCOCC1CN(S(=O)(=O)c2ccc(F)c(F)c2)c2cc(NC(=O)c3c(Cl)cccc3Cl)ccc2O1 (stereo not shown) [VI-98],< 15,< 15
COc1ccc(S(=O)(=O)N2C[C@H](CO)Oc3ccc(NC(=O)c4c(F)cccc4Cl)cc32)cn1 [VI-28],< 15,< 15
CC(C)OCC1CN(S(=O)(=O)c2ccc(F)cc2)c2cc(NC(=O)c3c(F)cccc3F)ccc2O1 (stereo not shown) [VI-115],< 15,< 15
Cc1nn(C(F)F)cc1S(=O)(=O)N1C[C@H](CO)Oc2ccc(NC(=O)c3c(F)cccc3Cl)cc21 [VI-30],< 15,< 15
"N#Cc1cccc(S(=O)(=O)N2C[C@H](CO)Oc3ccc(NC(=O)c4c(F)cccc4Cl)cc32)c1 [Compound 20, (R)-2-Chloro-N-(4-((3-cyanophenyl)sulfonyl)-2-(hydroxymethyl)-3,4-dihydro-2H-benzo[b][1,4]oxazin-6-yl)-6-fluorobenzamide]",< 15,< 15
CC1(C)CN(S(=O)(=O)c2ccc(F)cc2)c2cc(NC(=O)c3c(F)cccc3C(F)(F)F)ccc2O1 [VI-124],< 15,< 15

# From US9512111B2, “N-sulfonylated tetrahydroquinolines and related bicyclic compounds for inhibition of RORγ activity and the treatment of disease” (Lycera Corporation, priority 2010, dated 2016)
